Experimental data from US7635572B2, “Methods for conducting assays for enzyme activity on protein microarrays” (Life Technologies Corporation, priority 2004, dated 2009).
Where two headings read alike, the source gives them in different places.

How the values were obtained:
Assay in all cases: Further analysis of a plurality of inhibitors and a plurality of kinases on microarray (Example IX, Table 5);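 also: inhibition of each kinase by the inhibitors is given as a qualitative level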;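 as to Inhibition level, CDKL3: level 0 no or unclear inhibition to Level 2 substantial inhibition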;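 as to Inhibition level, DYRK1A: level 0 none or unclear Level 1 marginal Level 2 substantial inhibition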;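 as to Inhibition level, MAP4K3: level 0 none or unclear then 1 little or marginal then 2 substantial inhibition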;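 as to Inhibition level, PIM1: level 0 no or unclear inhibition to Level 2 substantial inhibition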;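 as to Inhibition level, PTK2B: level 0 no or unclear inhibition to Level 2 substantial inhibition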
Format in all cases: biochemical
[1] = molecular target: plurality of kinases (Table 5) (Homo sapiens, UniProt Q14289); details: plate G5
Chain of plurality of kinases (Table 5) (Homo sapiens, UniProt Q14289) (Q14289 whole entry): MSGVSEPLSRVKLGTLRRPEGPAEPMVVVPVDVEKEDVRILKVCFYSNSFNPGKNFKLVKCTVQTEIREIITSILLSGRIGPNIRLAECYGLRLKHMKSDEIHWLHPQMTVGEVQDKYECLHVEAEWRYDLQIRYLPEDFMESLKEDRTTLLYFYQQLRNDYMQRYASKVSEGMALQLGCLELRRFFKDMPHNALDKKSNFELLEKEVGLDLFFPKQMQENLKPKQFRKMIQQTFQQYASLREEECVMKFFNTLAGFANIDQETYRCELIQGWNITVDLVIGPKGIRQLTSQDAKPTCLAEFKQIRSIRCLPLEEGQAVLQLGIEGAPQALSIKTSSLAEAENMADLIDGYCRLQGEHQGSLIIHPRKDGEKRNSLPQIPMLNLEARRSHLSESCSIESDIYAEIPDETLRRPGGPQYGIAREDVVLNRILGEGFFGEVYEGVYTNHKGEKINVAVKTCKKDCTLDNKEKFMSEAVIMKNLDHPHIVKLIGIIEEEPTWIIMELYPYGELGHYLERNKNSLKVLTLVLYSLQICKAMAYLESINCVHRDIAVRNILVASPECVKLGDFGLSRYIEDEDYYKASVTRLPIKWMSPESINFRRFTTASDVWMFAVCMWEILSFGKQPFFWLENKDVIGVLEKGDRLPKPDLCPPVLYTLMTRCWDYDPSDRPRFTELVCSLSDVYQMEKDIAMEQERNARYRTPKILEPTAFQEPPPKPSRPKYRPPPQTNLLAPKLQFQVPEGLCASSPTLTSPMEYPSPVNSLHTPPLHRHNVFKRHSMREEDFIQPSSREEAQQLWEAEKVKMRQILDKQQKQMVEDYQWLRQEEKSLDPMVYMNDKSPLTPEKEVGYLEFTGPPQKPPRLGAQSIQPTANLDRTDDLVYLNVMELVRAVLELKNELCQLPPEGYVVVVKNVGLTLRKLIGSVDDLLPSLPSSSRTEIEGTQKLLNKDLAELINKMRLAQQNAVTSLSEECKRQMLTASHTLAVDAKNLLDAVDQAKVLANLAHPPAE

[2] = molecular target: T1, plurality of kinases (Table 5) (Homo sapiens, UniProt Q8IVH8); details: plate C5; inhibitor 100 uM
T1 sequence (Q8IVH8 1-894): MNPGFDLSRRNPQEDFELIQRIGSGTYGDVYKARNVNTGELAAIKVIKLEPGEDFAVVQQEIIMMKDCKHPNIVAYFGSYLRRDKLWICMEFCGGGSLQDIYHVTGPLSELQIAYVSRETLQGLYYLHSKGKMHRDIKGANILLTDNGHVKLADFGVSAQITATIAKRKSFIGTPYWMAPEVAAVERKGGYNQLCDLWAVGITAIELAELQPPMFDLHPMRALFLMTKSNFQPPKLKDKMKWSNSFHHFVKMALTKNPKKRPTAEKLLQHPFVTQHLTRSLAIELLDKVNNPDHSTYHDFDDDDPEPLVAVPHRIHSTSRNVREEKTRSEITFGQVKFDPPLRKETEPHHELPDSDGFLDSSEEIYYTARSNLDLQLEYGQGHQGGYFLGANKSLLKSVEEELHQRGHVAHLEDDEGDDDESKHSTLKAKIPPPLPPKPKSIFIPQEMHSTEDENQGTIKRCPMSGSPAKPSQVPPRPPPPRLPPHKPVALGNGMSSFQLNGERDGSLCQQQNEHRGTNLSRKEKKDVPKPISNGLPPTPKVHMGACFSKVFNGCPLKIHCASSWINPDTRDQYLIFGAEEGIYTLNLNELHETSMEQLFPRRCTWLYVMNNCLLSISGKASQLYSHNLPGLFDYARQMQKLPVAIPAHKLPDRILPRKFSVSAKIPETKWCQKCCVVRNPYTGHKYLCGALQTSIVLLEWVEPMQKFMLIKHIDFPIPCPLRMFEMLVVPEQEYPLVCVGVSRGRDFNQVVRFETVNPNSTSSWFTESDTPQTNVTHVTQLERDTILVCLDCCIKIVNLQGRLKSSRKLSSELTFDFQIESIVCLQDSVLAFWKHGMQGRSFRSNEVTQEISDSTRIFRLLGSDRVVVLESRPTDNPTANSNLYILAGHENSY

[3] = molecular target: plurality of kinases (Table 5) (Homo sapiens, UniProt Q9Y6E0); details: plate F11; inhibitor 100 uM
Chain of plurality of kinases (Table 5) (Homo sapiens, UniProt Q9Y6E0) (Q9Y6E0 whole entry): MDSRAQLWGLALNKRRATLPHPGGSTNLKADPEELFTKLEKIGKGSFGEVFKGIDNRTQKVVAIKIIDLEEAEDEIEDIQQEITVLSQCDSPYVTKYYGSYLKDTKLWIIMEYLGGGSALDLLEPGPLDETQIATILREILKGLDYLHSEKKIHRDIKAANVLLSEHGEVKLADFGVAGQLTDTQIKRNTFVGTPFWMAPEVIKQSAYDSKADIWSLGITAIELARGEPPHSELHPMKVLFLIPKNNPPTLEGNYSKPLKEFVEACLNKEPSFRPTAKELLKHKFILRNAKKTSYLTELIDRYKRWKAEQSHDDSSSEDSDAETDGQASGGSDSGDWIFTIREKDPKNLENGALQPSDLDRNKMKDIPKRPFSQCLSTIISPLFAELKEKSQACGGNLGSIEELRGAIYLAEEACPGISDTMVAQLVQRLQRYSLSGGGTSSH

[4] = molecular target: plurality of kinases (Table 5) (Homo sapiens, UniProt P00519); details: plate B6
Chain of plurality of kinases (Table 5) (Homo sapiens, UniProt P00519) (P00519 whole entry): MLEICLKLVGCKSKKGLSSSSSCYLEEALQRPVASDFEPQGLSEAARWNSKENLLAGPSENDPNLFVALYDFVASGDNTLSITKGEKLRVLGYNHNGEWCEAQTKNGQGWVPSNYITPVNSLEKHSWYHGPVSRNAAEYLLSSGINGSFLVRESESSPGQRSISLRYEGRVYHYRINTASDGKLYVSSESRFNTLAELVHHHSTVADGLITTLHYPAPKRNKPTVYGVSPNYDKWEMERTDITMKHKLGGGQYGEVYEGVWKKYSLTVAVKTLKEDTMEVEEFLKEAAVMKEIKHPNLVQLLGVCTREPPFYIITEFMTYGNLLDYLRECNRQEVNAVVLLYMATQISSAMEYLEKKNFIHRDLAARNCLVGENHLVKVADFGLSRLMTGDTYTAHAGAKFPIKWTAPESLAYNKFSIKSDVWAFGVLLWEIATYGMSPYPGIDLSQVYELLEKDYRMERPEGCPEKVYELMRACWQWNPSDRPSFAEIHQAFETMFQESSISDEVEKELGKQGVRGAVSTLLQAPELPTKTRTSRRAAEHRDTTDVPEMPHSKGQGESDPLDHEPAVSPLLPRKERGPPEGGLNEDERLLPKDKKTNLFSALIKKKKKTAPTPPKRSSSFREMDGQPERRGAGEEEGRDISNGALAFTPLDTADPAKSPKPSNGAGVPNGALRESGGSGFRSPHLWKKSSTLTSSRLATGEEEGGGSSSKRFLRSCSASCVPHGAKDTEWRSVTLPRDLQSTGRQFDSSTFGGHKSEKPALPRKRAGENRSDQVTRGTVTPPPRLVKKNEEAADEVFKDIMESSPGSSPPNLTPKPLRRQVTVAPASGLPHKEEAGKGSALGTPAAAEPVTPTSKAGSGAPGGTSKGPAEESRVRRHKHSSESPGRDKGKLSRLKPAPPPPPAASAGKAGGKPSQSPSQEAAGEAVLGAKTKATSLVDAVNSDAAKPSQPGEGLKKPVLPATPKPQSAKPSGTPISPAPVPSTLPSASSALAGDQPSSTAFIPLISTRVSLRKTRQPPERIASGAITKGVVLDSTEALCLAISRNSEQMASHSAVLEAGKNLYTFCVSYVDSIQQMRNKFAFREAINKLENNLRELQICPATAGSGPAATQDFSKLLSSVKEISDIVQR

[5] = molecular target: T2, plurality of kinases (Table 5) (Homo sapiens, UniProt Q9Y616); details: plate C9; inhibitor 100 uM
T2 sequence (Q9Y616 1-596): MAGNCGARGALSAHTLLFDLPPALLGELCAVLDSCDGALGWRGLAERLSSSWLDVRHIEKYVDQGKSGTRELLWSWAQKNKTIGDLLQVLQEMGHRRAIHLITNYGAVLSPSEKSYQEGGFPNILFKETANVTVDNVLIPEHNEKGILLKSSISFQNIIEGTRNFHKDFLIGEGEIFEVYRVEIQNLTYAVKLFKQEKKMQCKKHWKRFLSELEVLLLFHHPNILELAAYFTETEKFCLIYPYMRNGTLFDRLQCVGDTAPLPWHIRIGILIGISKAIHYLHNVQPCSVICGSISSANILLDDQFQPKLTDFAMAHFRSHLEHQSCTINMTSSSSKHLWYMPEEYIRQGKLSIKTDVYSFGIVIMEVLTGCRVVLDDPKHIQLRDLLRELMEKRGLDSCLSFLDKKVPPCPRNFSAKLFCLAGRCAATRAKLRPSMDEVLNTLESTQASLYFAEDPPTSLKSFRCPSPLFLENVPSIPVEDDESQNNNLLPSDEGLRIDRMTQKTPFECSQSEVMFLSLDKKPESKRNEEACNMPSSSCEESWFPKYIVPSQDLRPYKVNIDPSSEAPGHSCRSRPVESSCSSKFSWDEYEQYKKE

[6] = molecular target: plurality of kinases (Table 5) (Homo sapiens, UniProt P11309)
Chain of plurality of kinases (Table 5) (Homo sapiens, UniProt P11309) (P11309 whole entry): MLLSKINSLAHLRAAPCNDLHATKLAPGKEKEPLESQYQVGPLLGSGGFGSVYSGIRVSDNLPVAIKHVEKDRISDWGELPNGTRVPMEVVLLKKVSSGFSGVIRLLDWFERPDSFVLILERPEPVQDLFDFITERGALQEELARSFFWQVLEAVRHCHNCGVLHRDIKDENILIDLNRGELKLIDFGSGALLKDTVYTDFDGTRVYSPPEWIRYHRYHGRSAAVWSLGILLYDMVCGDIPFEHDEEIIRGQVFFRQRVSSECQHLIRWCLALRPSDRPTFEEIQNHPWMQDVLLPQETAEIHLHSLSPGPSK

[7] = molecular target: T3, plurality of kinases (Table 5) (Homo sapiens, UniProt Q12866); details: plate B11; inhibitor 100 uM
T3 sequence (Q12866 21-999): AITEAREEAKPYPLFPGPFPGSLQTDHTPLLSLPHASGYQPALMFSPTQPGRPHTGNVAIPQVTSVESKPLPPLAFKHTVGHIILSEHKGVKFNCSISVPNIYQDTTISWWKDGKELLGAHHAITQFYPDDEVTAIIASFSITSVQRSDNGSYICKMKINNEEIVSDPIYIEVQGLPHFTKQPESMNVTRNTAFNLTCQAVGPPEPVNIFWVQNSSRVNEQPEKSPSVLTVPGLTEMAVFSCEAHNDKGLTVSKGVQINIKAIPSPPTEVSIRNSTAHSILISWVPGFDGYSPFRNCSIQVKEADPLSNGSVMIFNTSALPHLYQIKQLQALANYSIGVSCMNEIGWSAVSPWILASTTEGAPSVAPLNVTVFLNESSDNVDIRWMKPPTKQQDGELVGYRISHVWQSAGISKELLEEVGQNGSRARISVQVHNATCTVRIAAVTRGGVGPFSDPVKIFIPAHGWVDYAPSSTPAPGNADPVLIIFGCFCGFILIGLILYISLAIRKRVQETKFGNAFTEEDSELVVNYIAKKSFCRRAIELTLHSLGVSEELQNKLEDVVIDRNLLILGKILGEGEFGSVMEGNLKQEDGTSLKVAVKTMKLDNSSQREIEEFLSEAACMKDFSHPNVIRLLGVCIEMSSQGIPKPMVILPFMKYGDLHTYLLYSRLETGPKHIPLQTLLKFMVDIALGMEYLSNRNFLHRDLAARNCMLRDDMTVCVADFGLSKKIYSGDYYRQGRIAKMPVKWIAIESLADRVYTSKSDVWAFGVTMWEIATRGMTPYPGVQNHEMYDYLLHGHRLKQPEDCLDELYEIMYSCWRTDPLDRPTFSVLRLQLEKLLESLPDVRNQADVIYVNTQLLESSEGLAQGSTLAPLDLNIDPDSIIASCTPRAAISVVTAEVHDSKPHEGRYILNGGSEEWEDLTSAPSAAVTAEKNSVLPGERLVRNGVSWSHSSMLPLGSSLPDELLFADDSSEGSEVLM

[8] = molecular target: plurality of kinases (Table 5) (Homo sapiens, UniProt Q13627); details: plate G6
[9] = molecular target: plurality of kinases (Table 5) (Homo sapiens, UniProt Q8IVW4); details: plate F12; inhibitor 100 uM
Chain of plurality of kinases (Table 5) (Homo sapiens, UniProt Q8IVW4) (Q8IVW4 whole entry): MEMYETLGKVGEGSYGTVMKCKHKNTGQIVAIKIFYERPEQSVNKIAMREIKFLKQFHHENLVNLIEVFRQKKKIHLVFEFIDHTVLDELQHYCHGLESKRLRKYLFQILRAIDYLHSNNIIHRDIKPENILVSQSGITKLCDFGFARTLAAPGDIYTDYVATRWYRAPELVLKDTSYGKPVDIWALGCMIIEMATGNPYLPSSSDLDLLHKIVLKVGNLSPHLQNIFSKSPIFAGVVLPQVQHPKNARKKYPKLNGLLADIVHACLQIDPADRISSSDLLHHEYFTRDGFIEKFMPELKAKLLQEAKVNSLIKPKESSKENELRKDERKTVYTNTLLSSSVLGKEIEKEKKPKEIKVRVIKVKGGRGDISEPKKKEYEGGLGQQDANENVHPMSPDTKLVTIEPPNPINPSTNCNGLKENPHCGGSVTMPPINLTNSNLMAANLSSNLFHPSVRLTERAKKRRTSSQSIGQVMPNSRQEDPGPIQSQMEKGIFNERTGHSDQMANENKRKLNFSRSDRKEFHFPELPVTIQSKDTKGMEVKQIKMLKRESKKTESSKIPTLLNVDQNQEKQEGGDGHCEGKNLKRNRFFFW

N#C/C(=C/c1ccc(O)c(O)c1)C(=O)NCc1ccccc1 [AG 490]
Inhibition level, PTK2B ([1]; inhibitor 100 uM): 2 | Inhibition level, MAP4K3 [2]: 1 | Inhibition level, STK24 [3]: 2 | Inhibition level, ABL1 ([4]; inhibitor 100 uM): 0 | Inhibition level, IRAK3 [5]: 0 | Inhibition level, PIM1 ([6]; plate C2, inhibitor 100 uM): 2 | Inhibition level, MERTK [7]: 2 | Inhibition level, DYRK1A ([8]; inhibitor 100 uM): 2 | Inhibition level, CDKL3 [9]: 2

COc1cc2ncnc(Nc3cccc(Cl)c3)c2cc1OC [AG 1478]
Inhibition level, PTK2B ([1]; inhibitor 100 uM): 2 | Inhibition level, MAP4K3 [2]: 2 | Inhibition level, STK24 [3]: 1 | Inhibition level, ABL1 ([4]; inhibitor 100 uM): 1 | Inhibition level, IRAK3 [5]: 2 | Inhibition level, PIM1 ([6]; plate C2, inhibitor 100 uM): 1 | Inhibition level, MERTK [7]: 2 | Inhibition level, DYRK1A ([8]; inhibitor 100 uM): 0 | Inhibition level, CDKL3 [9]: 1

O=c1c(-c2ccc(O)cc2)coc2cc(O)cc(O)c12 [Genistein]
Inhibition level, PTK2B ([1]; inhibitor 100 uM): 2 | Inhibition level, MAP4K3 [2]: 2 | Inhibition level, STK24 [3]: 2 | Inhibition level, ABL1 ([4]; Genistein, conc. not given): 0 | Inhibition level, ABL1 ([4]; inhibitor 100 uM): 0 | Inhibition level, IRAK3 [5]: 2 | Inhibition level, PIM1 ([6]; plate C2, Genistein <3.7 mM): 0 | Inhibition level, PIM1 ([6]; plate C2, inhibitor 100 uM): 2 | Inhibition level, MERTK [7]: 2 | Inhibition level, DYRK1A ([8]; Genistein <3.7 mM): 1 | Inhibition level, DYRK1A ([8]; inhibitor 100 uM): 2 | Inhibition level, CDKL3 [9]: 0

O=S(=O)(NCCNC/C=C/c1ccc(Br)cc1)c1cccc2cnccc12 [H-89]
Inhibition level, PTK2B ([1]; inhibitor 100 uM): 1 | Inhibition level, MAP4K3 [2]: 1 | Inhibition level, STK24 [3]: 2 | Inhibition level, ABL1 ([4]; inhibitor 100 uM): 0 | Inhibition level, IRAK3 [5]: 0 | Inhibition level, PIM1 ([6]; plate C2, inhibitor 100 uM): 2 | Inhibition level, MERTK [7]: 2 | Inhibition level, DYRK1A ([8]; inhibitor 100 uM): 2 | Inhibition level, CDKL3 [9]: 1

CC(C)(C)n1nc(-c2ccc(Cl)cc2)c2c(N)ncnc21 [PP2]
Inhibition level, PTK2B ([1]; inhibitor 100 uM): 2 | Inhibition level, MAP4K3 [2]: 2 | Inhibition level, STK24 [3]: 2 | Inhibition level, IRAK3 [5]: 2 | Inhibition level, PIM1 ([6]; plate C2, inhibitor 100 uM): 2 | Inhibition level, MERTK [7]: 2 | Inhibition level, DYRK1A ([8]; inhibitor 100 uM): 1 | Inhibition level, CDKL3 [9]: 2

O=c1c(O)c(-c2ccc(O)c(O)c2)oc2cc(O)cc(O)c12 [Quercetin]
Inhibition level, PTK2B ([1]; inhibitor 100 uM): 1 | Inhibition level, MAP4K3 [2]: 1 | Inhibition level, IRAK3 [5]: 0 | Inhibition level, MERTK [7]: 1 | Inhibition level, CDKL3 [9]: 0

Cn1cc(C2=C(c3cn(CCCSC(=N)N)c4ccccc34)C(=O)NC2=O)c2ccccc21 [Ro-31-8220]
Inhibition level, PTK2B ([1]; Ro-31-8220 90 uM): 0 | Inhibition level, PTK2B ([1]; inhibitor 100 uM): 2 | Inhibition level, MAP4K3 [2]: 2 | Inhibition level, STK24 [3]: 2 | Inhibition level, ABL1 ([4]; Ro-31-8220, conc. not given): 0 | Inhibition level, ABL1 ([4]; inhibitor 100 uM): 2 | Inhibition level, IRAK3 [5]: 2 | Inhibition level, PIM1 ([6]; plate C2, Ro-31-8220 90 uM): 2 | Inhibition level, PIM1 ([6]; plate C2, inhibitor 100 uM): 0 | Inhibition level, MERTK [7]: 2 | Inhibition level, DYRK1A ([8]; Ro-31-8220 90 uM): 0 | Inhibition level, DYRK1A ([8]; inhibitor 100 uM): 2 | Inhibition level, CDKL3 [9]: 2

CC(=O)c1c(O)c(C)c(O)c(Cc2c(O)c3c(c(C(=O)/C=C/c4ccccc4)c2O)OC(C)(C)C=C3)c1O [Rottlerin (Mallotoxin)]
Inhibition level, PTK2B ([1]; inhibitor 100 uM): 2 | Inhibition level, MAP4K3 [2]: 1 | Inhibition level, STK24 [3]: 1 | Inhibition level, ABL1 ([4]; inhibitor 100 uM): 0 | Inhibition level, IRAK3 [5]: 2 | Inhibition level, PIM1 ([6]; plate C2, inhibitor 100 uM): 2 | Inhibition level, MERTK [7]: 2 | Inhibition level, DYRK1A ([8]; inhibitor 100 uM): 0 | Inhibition level, CDKL3 [9]: 1

CN[C@@H]1C[C@H]2O[C@@](C)([C@@H]1OC)n1c3ccccc3c3c4c(c5c6ccccc6n2c5c31)C(=O)NC4 [Staurosporine]
Inhibition level, PTK2B ([1]; Staurosporine 21.5 uM): 0 | Inhibition level, PIM1 [6]: 2
